Experimental data: ChEMBL document CHEMBL6134868, “Novel Aryl Sulfonium Modification on Vancomycin to Tackle MRSA and VRE In Vitro and In Vivo through Dual Enhanced Cell-Wall and Membrane Inhibition” (J Med Chem, 2025)
Values after ≈ are worked out from the molar mass of the structure shown. Active and inactive are the calls of the source. The rule behind the calls is not given here.

What was measured:
[1] = Protein binding in plasma (unknown origin); format: ADME, cell-free; details: read-out: PPB (converted)
Staphylococcus aureus [2] = assay: Antibacterial activity against vancomycin-intermediate Staphylococcus aureus Mu50 incubated for 16 to 24 hrs by broth microdilution assay; format: functional; details: time 16-24 hrs
Enterococcus faecium [3] = assay: Antibacterial activity against vancomycin-resistant Enterococcus faecium Efm-HS-0649 harboring VanA phenotype incubated for 16 to 24 hrs by broth microdilution assay; format: functional; details: time 16-24 hrs
Enterococcus faecium [4] = assay: Antibacterial activity against vancomycin-resistant Enterococcus faecium Efm-HS-08257 harboring VanM phenotype incubated for 16 to 24 hrs by broth microdilution assay; format: functional; details: time 16-24 hrs
Enterococcus faecium [5] = assay: Antibacterial activity against vancomycin-resistant Enterococcus faecium Efm-HS-vb01 harboring VanB phenotype incubated for 16 to 24 hrs by broth microdilution assay; format: functional; details: time 16-24 hrs
Enterococcus faecium [6] = assay: Antibacterial activity against vancomycin-resistant Enterococcus faecium Efm-HS-vb02 harboring VanB phenotype incubated for 16 to 24 hrs by broth microdilution assay; format: functional; details: time 16-24 hrs
Escherichia coli = assay: Antibacterial activity against Escherichia coli AB1157 incubated for 16 to 24 hrs by broth microdilution assay; format: functional; details: time 16-24 hrs
Acinetobacter baumannii [7] = assay: Antibacterial activity against carbapenem-resistant Acinetobacter baumannii CRAB-1 clinical isolate incubated for 16 to 24 hrs by broth microdilution assay; format: functional; details: time 16-24 hrs
Acinetobacter baumannii [8] = assay: Antibacterial activity against Acinetobacter baumannii ATCC19606 incubated for 16 to 24 hrs by broth microdilution assay; format: functional; details: time 16-24 hrs
Pseudomonas aeruginosa = assay: Antibacterial activity against Pseudomonas aeruginosa PAO1 incubated for 16 to 24 hrs by broth microdilution assay; format: functional; details: time 16-24 hrs
Klebsiella pneumoniae = assay: Antibacterial activity against Klebsiella pneumoniae KP-1 incubated for 16 to 24 hrs by broth microdilution assay; format: functional; details: time 16-24 hrs
[9] = Hemolytic activity against rat erythrocytes at 100 ug/ml incubated for 1 hr by absorbance based assay; format: toxicity, cell-based, Erythrocyte; details: erythrocytes, at 100 µg/mL, read-out: Activity
Staphylococcus aureus [10] = assay: Antibacterial activity against methicillin-resistant Staphylococcus aureus USA300 LAC infected in female BALB/c mouse assessed as animal survival rate at 7 mg/kg, iv measured for 7 days consecutively relative to control; format: functional; details: time 7.0 day
Enterococcus faecium [11] = assay: Antibacterial activity against vancomycin-resistant Enterococcus faecium SC-2022-D2-059 harboring VanA phenotype infected in ICR mouse assessed as animal survival rate at 20 mg/kg, iv measured for 7 days relative to control; format: functional; details: SC-2022-D2-059, 168 h, time 7 day
Enterococcus faecium [12] = assay: Antibacterial activity against vancomycin-resistant Enterococcus faecium SC-2022-D2-059 harboring VanA phenotype incubated for 16 to 24 hrs by broth microdilution assay; format: functional; details: time 16-24 hrs
Staphylococcus aureus [13] = assay: Antibacterial activity against methicillin-resistant Staphylococcus aureus USA300 LAC incubated for 16 to 24 hrs by broth microdilution assay; format: functional; details: time 16-24 hrs

Row | SMILES | fraction unbound [1] | MIC (Staphylococcus aureus [2]) [µg/mL] | MIC (Enterococcus faecium [3]) [µg/mL] | MIC (Enterococcus faecium [4]) [µg/mL] | MIC (Enterococcus faecium [5]) [µg/mL] | MIC (Enterococcus faecium [6]) [µg/mL] | MIC (Escherichia coli) [µg/mL] | MIC (Acinetobacter baumannii [7]) [µg/mL] | MIC (Acinetobacter baumannii [8]) [µg/mL] | MIC (Pseudomonas aeruginosa) [µg/mL] | MIC (Klebsiella pneumoniae) [µg/mL] | hemolysis at 1 h, 100 ug/ml [9] [%] | Activity (Staphylococcus aureus [10]) | survival at 20 mg/kg (Enterococcus faecium [11]) [%] | MIC (Enterococcus faecium [12]) [µg/mL] | MIC (Staphylococcus aureus [13]) [µg/mL]
1 | CCCCCCCCCCNCCN[C@@]1(C)C[C@H](O[C@H]2[C@H](Oc3c4cc5cc3Oc3ccc(cc3Cl)[C@@H](O)[C@@H](NC(=O)[C@@H](CC(C)C)NC)C(=O)N[C@@H](CC(N)=O)C(=O)N[C@H]5C(=O)N[C@H]3C(=O)N[C@H](C(=O)N[C@H](C(=O)O)c5cc(O)c(CNCP(=O)(O)O)c(O)c5-c5cc3ccc5O)[C@H](O)c3ccc(c(Cl)c3)O4)O[C@H](CO)[C@@H](O)[C@@H]2O)O[C@@H](C)[C@H]1O [TELAVANCIN] | 0.1 |  |  |  |  |  |  |  |  |  |  |  |  |  |  | 
2 | CN[C@H](CC(C)C)C(=O)N[C@H]1C(=O)N[C@@H](CC(N)=O)C(=O)N[C@H]2C(=O)N[C@H]3C(=O)N[C@H](C(=O)N[C@H](C(=O)O)c4cc(O)cc(O)c4-c4cc3ccc4O)[C@H](O)c3ccc(c(Cl)c3)Oc3cc2cc(c3O[C@@H]2O[C@H](CO)[C@@H](O)[C@H](O)[C@H]2O[C@H]2C[C@](C)(N)[C@H](O)[C@H](C)O2)Oc2ccc(cc2Cl)[C@H]1O [VANCOMYCIN] | 0.9 | 8 (≈ 5.52 µM) | > 128 | > 128 | > 128 | 16 (≈ 11 µM) | > 128 | > 128 | > 128 | > 128 | > 128 | ~6 | inactive | 0 | ≥ 128 | 
3 | CN[C@H](CC(C)C)C(=O)N[C@H]1C(=O)N[C@@H](CC(N)=O)C(=O)N[C@H]2C(=O)N[C@H]3C(=O)N[C@H](C(=O)N[C@H](C(=O)O)c4cc(O)c(CNCCC[S+](C)C[C@@H](O)COc5ccccc5)c(O)c4-c4cc3ccc4O)[C@H](O)c3ccc(c(Cl)c3)Oc3cc2cc(c3O[C@@H]2O[C@H](CO)[C@@H](O)[C@H](O)[C@H]2O[C@H]2C[C@](C)(N)[C@H](O)[C@H](C)O2)Oc2ccc(cc2Cl)[C@H]1O.O=C([O-])C(F)(F)F (some centres undefined) |  | 4 | > 128 | 128 | 2 | 4 | 16 | > 128 | 128 | > 128 | > 128 |  |  |  |  | 0.5
4 | CN[C@H](CC(C)C)C(=O)N[C@H]1C(=O)N[C@@H](CC(N)=O)C(=O)N[C@H]2C(=O)N[C@H]3C(=O)N[C@H](C(=O)N[C@H](C(=O)NCCC[S+](C)CC(O)COc4ccccc4Cl)c4cc(O)cc(O)c4-c4cc3ccc4O)[C@H](O)c3ccc(c(Cl)c3)Oc3cc2cc(c3O[C@@H]2O[C@H](CO)[C@@H](O)[C@H](O)[C@H]2O[C@H]2C[C@](C)(N)[C@H](O)[C@H](C)O2)Oc2ccc(cc2Cl)[C@H]1O.O=C([O-])C(F)(F)F (some centres undefined) |  | 1 | 16 | 8 | 8 | 2 | 16 | > 128 | 64 | > 128 | > 128 |  |  |  |  | 0.25
5 | CN[C@H](CC(C)C)C(=O)N[C@H]1C(=O)N[C@@H](CC(N)=O)C(=O)N[C@H]2C(=O)N[C@H]3C(=O)N[C@H](C(=O)N[C@H](C(=O)O)c4cc(O)cc(O)c4-c4cc3ccc4O)[C@H](O)c3ccc(c(Cl)c3)Oc3cc2cc(c3O[C@@H]2O[C@H](CO)[C@@H](O)[C@H](O)[C@H]2O[C@H]2C[C@](C)(NCCC[S+](C)C[C@H](O)COc3ccccc3)[C@H](O)[C@H](C)O2)Oc2ccc(cc2Cl)[C@H]1O.O=C([O-])C(F)(F)F (some centres undefined) |  | 1 | 16 | 16 | 8 | 4 | 128 | > 128 | 128 | > 128 | > 128 |  |  |  |  | 0.125
